Measured values from patent US20230104936A1, “TRPML MODULATORS” (Casma Therapeutics, Inc., priority 2019, published 2023).

What follows are molecules tested on TFEB (assay: TFEB nuclear translocation assay, HeLa wt cells). Conditions: Homo sapiens, HeLa, 2 h, 2 hrs compound treatment, Table 1 does not say HeLa wt or TRPML1 KO.
Type: cell-based
Procedure, shortened: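 HeLa wt, 2 hr compound, 37° C; 4% PFA fix; anti-TFEB (rabbit, 1:200, overnight 4° C) + Alexa 488 secondary, Hoechst. Imaged ×20, 4 fields/well. Readout: nuclear/ring Alexa 488 intensity ratio; AC50.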
For CN(C)S(=O)(=O)c1ccc(S(=O)(=O)Nc2nnc(N3CCN(c4ccc(Cl)cc4F)CC3)s2)cc1 [Compound A-36, N4-{5-[4-(4-chloro-2-fluorophenyl)piperazin-1-yl]-1,3,4-thiadiazol-2-yl}-N1,N1-dimethylbenzene-1,4-disulfonamide], the AC50 was ≤ 2 µM.
Work on Cc1nn(S(=O)(=O)c2ccc(S(=O)(=O)N(C)C)cc2)cc1C1=CCN(c2ccc(Cl)cc2F)CC1 [Compound A-37, 4-({4-[1-(4-chloro-2-fluorophenyl)-1,2,3,6-tetrahydropyridin-4-yl]-3-methyl-1H-pyrazol-1-yl}sulfonyl)-N,N-dimethylbenzene-1-sulfonamide] yielded an AC50 of 2.01 to 8 µM.
For Cc1nn(S(=O)(=O)c2ccc(S(=O)(=O)N(C)C)cc2)cc1C1CCN(c2ccc(Cl)cc2F)CC1 [Compound A-38, 4-({4-[1-(4-chloro-2-fluorophenyl)piperidin-4-yl]-3-methyl-1H-pyrazol-1-yl}sulfonyl)-N,N-dimethylbenzene-1-sulfonamide], the AC50 was ≤ 2 µM.
Molecule Cc1nc(C2CCN(c3ccc(Cl)cc3F)CC2)cn1S(=O)(=O)c1ccc(S(=O)(=O)N(C)C)cc1 [Compound A-39, 4-((4-(1-(4-chloro-2-fluorophenyl)piperidin-4-yl)-2-methyl-1H-imidazol-1-yl)sulfonyl)-N,N-dimethylbenzenesulfonamide] has an AC50 of 2.01 to 8 µM.
In the case of CN(C)S(=O)(=O)c1ccc(S(=O)(=O)Nc2nn(C)cc2C2CCN(c3ccccc3F)CC2)cc1 [Compound A-40, N1-(4-(1-(2-fluorophenyl)piperidin-4-yl)-1-methyl-1H-pyrazol-3-yl)-N4,N4-dimethylbenzene-1,4-disulfonamide], the AC50 is reported as 2.01 to 8 µM.
CCOC(=O)c1ccc(S(=O)(=O)Nc2ccccc2N2CCC(c3ccc(Cl)cc3F)CC2)cc1 [Compound A-41, ethyl 4-({2-[4-(4-chloro-2-fluorophenyl)piperidin-1-yl]phenyl}sulfamoyl)benzoate] was tested, and the AC50 was ≥ 10 µM.
With O=S(=O)(Nc1ccccc1N1CCC(c2ccc(Cl)cc2F)CC1)c1ccccc1 [Compound A-42, N-{2-[4-(4-chloro-2-fluorophenyl)piperidin-1-yl]phenyl}benzenesulfonamide] the AC50 was ≥ 10 µM.
O=S(=O)(Nc1ccccc1N1CCN(c2ccc(Cl)cc2F)CC1)N1CCOCC1 [Compound A-43, N-{2-[4-(4-chloro-2-fluorophenyl)piperazin-1-yl]phenyl}morpholine-4-sulfonamide] was tested, and the AC50 was ≤ 2 µM.
For CN(C)C(=O)c1ccc(S(=O)(=O)Nc2ccccc2N2CCC(c3ccc(Cl)cc3F)CC2)cc1 [Compound A-44, 4-({2-[4-(4-chloro-2-fluorophenyl)piperidin-1-yl]phenyl}sulfamoyl)-N,N-dimethylbenzamide], the AC50 was ≤ 2 µM.
Work on O=C(NC1CC1)c1ccc(S(=O)(=O)Nc2ccccc2N2CCC(c3ccc(Cl)cc3F)CC2)cc1 [Compound A-45, 4-({2-[4-(4-chloro-2-fluorophenyl)piperidin-1-yl]phenyl}sulfamoyl)-N-cyclopropylbenzamide] yielded an AC50 of 2.01 to 8 µM.
With CN(C)S(=O)(=O)c1ccc(S(=O)(=O)Nc2cccc(N3CCC(c4ccc(Cl)cc4F)CC3)c2)cc1 [Compound A-46, N4-{3-[4-(4-chloro-2-fluorophenyl)piperidin-1-yl]phenyl}-N1,N1-dimethylbenzene-1,4-disulfonamide] the AC50 was ≥ 10 µM.
With CN(C)S(=O)(=O)c1ccc(S(=O)(=O)Nc2ccccc2N2CCC(c3ccc(Cl)cc3)CC2)cc1 [Compound A-47, N4-{2-[4-(4-chlorophenyl)piperidin-1-yl]phenyl}-N1,N1-dimethylbenzene-1,4-disulfonamide] the AC50 was ≤ 2 µM.
In the case of CNC(=O)c1ccc(S(=O)(=O)Nc2ccccc2N2CCC(c3ccc(Cl)cc3F)CC2)cc1 [Compound A-48, 4-({2-[4-(4-chloro-2-fluorophenyl)piperidin-1-yl]phenyl}sulfamoyl)-N-methylbenzamide], the AC50 is reported as ≥ 10 µM.
O=C(c1ccc(S(=O)(=O)Nc2ccccc2N2CCC(c3ccc(Cl)cc3F)CC2)cc1)N1CCCC1 [Compound A-49, N-{2-[4-(4-chloro-2-fluorophenyl)piperidin-1-yl]phenyl}-4-(pyrrolidine-1-carbonyl)benzene-1-sulfonamide] was tested, and the AC50 was ≥ 10 µM.
Work on Cc1nn(S(=O)(=O)c2ccc(S(=O)(=O)N(C)C)cc2)cc1N1CCC(c2ccc(Cl)cc2F)CC1 [Compound A-50, 4-((4-(4-(4-chloro-2-fluorophenyl)piperidin-1-yl)-3-methyl-1H-pyrazol-1-yl)sulfonyl)-N,N-dimethylbenzenesulfonamide] yielded an AC50 of 2.01 to 8 µM.
In the case of CN(C)S(=O)(=O)c1ccc(S(=O)(=O)Nc2ccccc2N2CCN(c3ncccc3F)CC2)cc1 [Compound A-51, N4-{2-[4-(3-fluoropyridin-2-yl)piperazin-1-yl]phenyl}-N1,N1-dimethylbenzene-1,4-disulfonamide], the AC50 is reported as 2.01 to 8 µM.
In the case of CN(C)S(=O)(=O)c1ccc(S(=O)(=O)Nc2ccccc2N2CCN(C3CC3)CC2)cc1 [Compound A-52, N4-[2-(4-cyclopropylpiperazin-1-yl)phenyl]-N1,N1-dimethylbenzene-1,4-disulfonamide], the AC50 is reported as ≤ 2 µM.
In the case of CN(C)S(=O)(=O)c1ccc(S(=O)(=O)Nc2ccccc2N2CCN(C3CCCCC3)CC2)cc1 [Compound A-53, N4-[2-(4-cyclohexylpiperazin-1-yl)phenyl]-N1,N1-dimethylbenzene-1,4-disulfonamide], the AC50 is reported as 2.01 to 8 µM.
With CN1CCN(c2ccccc2NS(=O)(=O)c2ccc(S(=O)(=O)N(C)C)cc2)CC1 [Compound A-54, N1,N1-dimethyl-N4-[2-(4-methylpiperazin-1-yl)phenyl]benzene-1,4-disulfonamide] the AC50 was ≥ 10 µM.
For CN(C)S(=O)(=O)c1ccc(S(=O)(=O)Nc2nn(C)cc2C2CCN(c3ccc(Cl)cc3F)CC2)cc1 [Compound A-55, N1-(4-(1-(4-chloro-2-fluorophenyl)piperidin-4-yl)-1-methyl-1H-pyrazol-3-yl)-N4,N4-dimethylbenzene-1,4-disulfonamide], the AC50 was ≤ 2 µM.
Molecule CN(C)S(=O)(=O)c1ccc(S(=O)(=O)Nc2ccccc2N2CC(c3ccc(Cl)cc3)C2)cc1 [Compound A-56, N4-{2-[3-(4-chlorophenyl)azetidin-1-yl]phenyl}-N1,N1-dimethylbenzene-1,4-disulfonamide] has an AC50 of 2.01 to 8 µM.
In the case of CN(C)S(=O)(=O)c1ccc(S(=O)(=O)Nc2ccccc2N2CCN(c3ccncc3F)CC2)cc1 [Compound A-57, N4-{2-[4-(3-fluoropyridin-4-yl)piperazin-1-yl]phenyl}-N1,N1-dimethylbenzene-1,4-disulfonamide], the AC50 is reported as 2.01 to 8 µM.
For CN1CC2CN(c3ccccc3NS(=O)(=O)c3ccc(S(=O)(=O)N(C)C)cc3)CC2C1 (stereo not drawn) [Compound A-58, N1,N1-dimethyl-N4-(2-{5-methyl-octahydropyrrolo[3,4-c]pyrrol-2-yl}phenyl)benzene-1,4-disulfonamide], the AC50 was ≥ 10 µM.
For CN(C)S(=O)(=O)c1ccc(S(=O)(=O)Nc2nc(N3CCN(c4ccc(Cl)cc4F)CC3)n(C)n2)cc1 [Compound A-59, N1-(5-(4-(4-chloro-2-fluorophenyl)piperazin-1-yl)-1-methyl-1H-1,2,4-triazol-3-yl)-N4,N4-dimethylbenzene-1,4-disulfonamide], the AC50 was ≥ 10 µM.
In the case of CN(C)S(=O)(=O)c1ccc(S(=O)(=O)Nc2ccccc2N2CCC(c3cnn(C)c3)CC2)cc1 [Compound A-60, N1,N1-dimethyl-N4-{2-[4-(1-methyl-1H-pyrazol-4-yl)piperidin-1-yl]phenyl}benzene-1,4-disulfonamide], the AC50 is reported as 2.01 to 8 µM.
In the case of CN1Cc2cc(S(=O)(=O)Nc3ccccc3N3CCC(c4ccc(Cl)cc4F)CC3)ccc2C1=O [Compound A-61, N-{2-[4-(4-chloro-2-fluorophenyl)piperidin-1-yl]phenyl}-2-methyl-1-oxo-2,3-dihydro-1H-isoindole-5-sulfonamide], the AC50 is reported as ≥ 10 µM.
CN(C)S(=O)(=O)c1ccc(S(=O)(=O)n2cnc(N3CCC(c4ccc(Cl)cc4F)CC3)n2)cc1 [Compound A-62, 4-((3-(4-(4-chloro-2-fluorophenyl)piperidin-1-yl)-1H-1,2,4-triazol-1-yl)sulfonyl)-N,N-dimethylbenzenesulfonamide] was tested, and the AC50 was 8.01 to 9.99 µM.
CN(C)S(=O)(=O)c1ccc(S(=O)(=O)n2c(=O)n(C3CCN(c4ccc(Cl)cc4F)CC3)c3ccccc32)cc1 [Compound A-63, 4-({3-[1-(4-chloro-2-fluorophenyl)piperidin-4-yl]-2-oxo-2,3-dihydro-1H-1,3-benzodiazol-1-yl}sulfonyl)-N,N-dimethylbenzene-1-sulfonamide] gave an AC50 of 2.01 to 8 µM.
CN(C)S(=O)(=O)c1ccc(S(=O)(=O)Nc2nnc(C3CCN(c4ccc(Cl)cc4F)CC3)s2)cc1 [Compound A-64, N1-(5-(1-(4-chloro-2-fluorophenyl)piperidin-4-yl)-1,3,4-thiadiazol-2-yl)-N4,N4-dimethylbenzene-1,4-disulfonamide] was tested, and the AC50 was ≥ 10 µM.
With Cc1noc(NS(=O)(=O)c2ccc(S(=O)(=O)N(C)C)cc2)c1C1=CCN(c2ccc(Cl)cc2F)CC1 [Compound A-65, N1-(4-(1-(4-chloro-2-fluorophenyl)-1,2,3,6-tetrahydropyridin-4-yl)-3-methylisoxazol-5-yl)-N4,N4-dimethylbenzene-1,4-disulfonamide] the AC50 was ≥ 10 µM.
In the case of CP(=O)(Nc1ccccc1N1CCC(c2ccc(Cl)cc2F)CC1)c1ccccc1 (stereo not drawn) [Compound A-66, 4-(4-chloro-2-fluorophenyl)-1-(2-{[methyl(phenyl)phosphoryl]amino}phenyl)piperidine], the AC50 is reported as ≥ 10 µM.
For CN(C)S(=O)(=O)c1ccc(S(=O)(=O)n2ccn(C3CCN(c4ccc(Cl)cc4F)CC3)c2=O)cc1 [Compound A-67, 4-((3-(1-(4-chloro-2-fluorophenyl)piperidin-4-yl)-2-oxo-2,3-dihydro-1H-imidazol-1-yl)sulfonyl)-N,N-dimethylbenzenesulfonamide], the AC50 was ≥ 10 µM.
For CN(C)S(=O)(=O)c1ccc(S(=O)(=O)Nc2nc(N3CCN(c4ccc(Cl)cc4F)CC3)nn2C)cc1 [Compound A-68, N1-(3-(4-(4-chloro-2-fluorophenyl)piperazin-1-yl)-1-methyl-1H-1,2,4-triazol-5-yl)-N4,N4-dimethylbenzene-1,4-disulfonamide], the AC50 was ≥ 10 µM.
